This is an account of results in patent publication US10189854B2, “Substituted pyrimidine compounds” (Grünenthal GmbH, priority 2014, dated 2019).

Counter-ions that a name gives are not always drawn.

human PDE4B1, sequence (Q07343 whole entry): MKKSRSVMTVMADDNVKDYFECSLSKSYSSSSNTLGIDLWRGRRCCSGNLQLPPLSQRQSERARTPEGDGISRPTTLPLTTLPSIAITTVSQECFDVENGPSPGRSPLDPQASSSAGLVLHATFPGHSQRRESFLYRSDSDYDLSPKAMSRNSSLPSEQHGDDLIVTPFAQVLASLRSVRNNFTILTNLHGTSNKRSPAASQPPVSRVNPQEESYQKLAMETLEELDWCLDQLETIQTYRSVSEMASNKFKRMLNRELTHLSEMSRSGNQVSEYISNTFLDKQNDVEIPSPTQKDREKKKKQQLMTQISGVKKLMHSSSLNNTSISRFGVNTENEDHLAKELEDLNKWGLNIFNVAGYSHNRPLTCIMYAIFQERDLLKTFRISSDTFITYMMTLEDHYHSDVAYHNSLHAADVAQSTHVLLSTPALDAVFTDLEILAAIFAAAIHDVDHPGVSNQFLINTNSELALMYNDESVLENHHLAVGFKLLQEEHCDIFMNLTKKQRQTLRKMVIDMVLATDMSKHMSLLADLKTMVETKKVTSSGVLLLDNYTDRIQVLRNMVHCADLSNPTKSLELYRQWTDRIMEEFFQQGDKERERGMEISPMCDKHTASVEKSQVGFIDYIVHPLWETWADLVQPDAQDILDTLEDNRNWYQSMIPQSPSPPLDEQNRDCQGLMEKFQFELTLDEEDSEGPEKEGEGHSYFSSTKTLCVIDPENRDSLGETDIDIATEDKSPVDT

The test deals with human PDE4B1 (Homo sapiens (Human), UniProt Q07343). Nature of the test: TR-FRET assay using the LANCE Ultra cAMP kit to determine the activity of hPDE4B1. The class given is biochemical. Particulars: IC50 inhibition of PDE4B, mean. The source says:
TR-FRET Assay Using the LANCE® Ultra cAMP Kit to Determine the Activity of hPDE4B1
The effects of the compounds on the activity of the human PDE4B1 was quantified by measuring the production of 5′AMP from cAMP using a human recombinant enzyme expressed in Sf9 cells and the LANCE® Ultra cAMP kit, a TR-FRET detection method from PerkinElmer. The human PDE4B1 enzyme was purchased from SignalChem Lifesciences (Catalog# P92-31BG, Lot# H296-2).
The test compound, reference compound or water (control) was mixed with the enzyme (0.96 U) in a reaction buffer containing 50 mM Tris-HCl, 50 mM MgCl2 and 5 mM DTT (pH 8.5). Thereafter, the reaction was initiated by addition of 500 nM cAMP (substrate) and the mixture was incubated for 30 minutes at room temperature. For control basal measurements, the enzyme was omitted from the reaction mixture. After 30 minutes, the reaction was stopped and diluted by a factor of 100 with the reaction buffer supplemented with 500 μM IBMX. The fluorescence donor (europium chelate-labeled cAMP) and the fluorescence acceptor (anti-cAMP antibody labeled with the ULight™ dye) were then added together with 500 μM IBMX to a 10 μl aliquot. After 60 minutes, the fluorescence transfer corresponding to the amount of residual cAMP was measured at λex=337 nm, λem=620 nm and λem=665 nm using a microplate reader (PHERAstar, BMG). The enzyme activity was determined by dividing the signal measured at 665 nm by that measured at 620 nm (ratio) multiplied by 10000. The results were expressed as percent inhibition of the control enzyme activity. IC50 values (IC50=concentration causing a half-maximal inhibition of control specific activity) were derived from dose response measurements with ten different concentrations (n=3; N=1-3).
Several compounds according to the invention are tested with above mentioned assay.
A general note: In TR-FRET formats the signal depends on donor and acceptor labels being close together.
Broadly, the IC50 is the concentration that gives 50% inhibition. A high value points to weaker potency. Regarding `COc1ccnc(-c2cnc(N3CC4(CC4)c4ccc(C(=O)N5CCNC(=O)C5)cc43)nc2)c1` [Compound 244, 4-[1-[5-(4-Methoxy-pyridin-2-yl)-pyrimidin-2-yl]-spiro[1,2-dihydro-indole-3,1′-cyclopropane]-6-carbonyl]-piperazin-2-one], the IC50 is less than 0.1 µM.
Then `CN(CC(=O)O)C(=O)c1ccc2c(c1)N(c1ncc(-c3ccccc3F)cn1)CC21CC1` [Compound 245, 2-[[1-[5-(2-Fluorophenyl)-pyrimidin-2-yl]-spiro[1,2-dihydro-indole-3,1′-cyclopropane]-6-carbonyl]-methyl-amino]-acetic acid], with less than 0.1 µM; and `COC(=O)CN(C)C(=O)c1ccc2c(c1)N(c1ncc(-c3ccccc3F)cn1)CC21CC1` [Compound 246, 2-[[1-[5-(2-Fluorophenyl)-pyrimidin-2-yl]-spiro[1,2-dihydro-indole-3,1′-cyclopropane]-6-carbonyl]-methyl-amino]acetic acid methyl ester], with 0.1 to 1 µM; and `O=C(c1ccc2c(c1)N(c1ncc(-c3ccccc3)cn1)CC21CC1)N1C[C@H]2C[C@@H]1CN2` [Compound 248, [(1R,4R)-2,5-Diazabicyclo[2.2.1]heptan-2-yl]-[1-(5-phenyl-pyrimidin-2-yl)-spiro[1,2-dihydro-indole-3,1′-cyclopropane]-6-yl]-methanone], with 0.1 to 1 µM.
Then `O=C(c1ccc2c(c1)N(c1ncc(-c3ccccc3)cn1)CC21CC1)N1C[C@@H]2C[C@H]1CN2` [Compound 249, [(1S,4S)-2,5-Diazabicyclo[2.2.1]heptan-2-yl]-[1-(5-phenyl-pyrimidin-2-yl)-spiro[1,2-dihydro-indole-3,1′-cyclopropane]-6-yl]-methanone], with less than 0.1 µM; and `O=C(c1ccc2c(c1)N(c1ncc(-c3cccc(O)c3)cn1)CC21CC1)N1CC2CC1CN2` (stereo not shown) [Compound 250, (2,5-Diazabicyclo[2.2.1]heptan-2-yl)-[1-[5-(3-hydroxyphenyl)-pyrimidin-2-yl]-spiro[1,2-dihydro-indole-3,1′-cyclopropane]-6-yl]-methanone], with less than 0.1 µM; and `CN(CCO)C(=O)c1ccc2c(c1)N(c1ncc(-c3cc(N)ccn3)cn1)CC21CC1` [Compound 251, 1-[5-(4-Amino-pyridin-2-yl)-pyrimidin-2-yl]-N-(2-hydroxy-ethyl)-N-methyl-spiro[1,2-dihydro-indole-3,1′-cyclopropane]-6-carboxylic acid amide], with less than 0.1 µM.
Then `CC(=O)Nc1ccnc(-c2cnc(N3CC4(CC4)c4ccc(C(=O)N(C)CCO)cc43)nc2)c1` [Compound 252, 1-[5-(4-Acetylamino-pyridin-2-yl)-pyrimidin-2-yl]-N-(2-hydroxy-ethyl)-N-methyl-spiro[1,2-dihydro-indole-3,1′-cyclopropane]-6-carboxylic acid amide], with less than 0.1 µM; and `COc1ccc(F)c(-c2cnc(N3CC4(CC4)c4ccc(C(=O)N(C)CCO)cc43)nc2)c1` [Compound 253, 1-[5-(2-Fluoro-5-methoxy-phenyl)-pyrimidin-2-yl]-N-(2-hydroxy-ethyl)-N-methyl-spiro[1,2-dihydro-indole-3,1′-cyclopropane]-6-carboxylic acid amide], with less than 0.1 µM; and `CN(CCO)C(=O)c1ccc2c(c1)N(c1ncc(-c3cc(C4CC4)ccn3)cn1)CC21CC1` [Compound 254, 1-[5-(4-Cyclopropyl-pyridin-2-yl)-pyrimidin-2-yl]-N-(2-hydroxy-ethyl)-N-methyl-spiro[1,2-dihydro-indole-3,1′-cyclopropane]-6-carboxylic acid amide], with less than 0.1 µM.
As for `CN(C)c1ccnc(-c2cnc(N3CC4(CC4)c4ccc(C(=O)N5CCNC(=O)C5)cc43)nc2)c1` [Compound 255], the IC50 is less than 0.1 µM.
Then `CN(CC(N)=O)C(=O)c1ccc2c(c1)N(c1ncc(-c3ccccc3F)cn1)CC21CC1` [Compound 256, N-(Carbamoyl-methyl)-1-[5-(2-fluorophenyl)-pyrimidin-2-yl]-N-methyl-spiro[1,2-dihydro-indole-3,1′-cyclopropane]-6-carboxylic acid amide], with less than 0.1 µM; and `CCOc1ccnc(-c2cnc(N3CC4(CC4)c4ccc(C(=O)N(C)CCO)cc43)nc2)c1` [Compound 257, 1-[5-(4-Ethoxy-pyridin-2-yl)-pyrimidin-2-yl]-N-(2-hydroxy-ethyl)-N-methyl-spiro[1,2-dihydro-indole-3,1′-cyclopropane]-6-carboxylic acid amide], with less than 0.1 µM; and `Nc1ccnc(-c2cnc(N3CC4(CC4)c4ccc(C(=O)N5CCNC(=O)C5)cc43)nc2)c1` [Compound 258, 4-[1-[5-(4-Amino-pyridin-2-yl)-pyrimidin-2-yl]-spiro[1,2-dihydro-indole-3,1′-cyclopropane]-6-carbonyl]-piperazin-2-one], with less than 0.1 µM.
Then `Cc1cc(N)cc(-c2cnc(N3CC4(CC4)c4ccc(C(=O)N5CCOCC5)cc43)nc2)n1` [Compound 259, [1-[5-(4-Amino-6-methyl-pyridin-2-yl)-pyrimidin-2-yl]-spiro[1,2-dihydro-indole-3,1′-cyclopropane]-6-yl]-morpholin-4-yl-methanone], with less than 0.1 µM; and `Cc1cc(C)nc(-c2cnc(N3CC4(CC4)c4ccc(C(=O)N(C)CCO)cc43)nc2)c1` [Compound 260, 1-[5-(4,6-Dimethyl-pyridin-2-yl)-pyrimidin-2-yl]-N-(2-hydroxy-ethyl)-N-methyl-spiro[1,2-dihydro-indole-3,1′-cyclopropane]-6-carboxylic acid amide], with less than 0.1 µM.
Then `Cc1cc(N)cc(-c2cnc(N3CC4(CC4)c4ccc(C(=O)N(C)CCO)cc43)nc2)n1` [Compound 261, 1-[5-(4-Amino-6-methyl-pyridin-2-yl)-pyrimidin-2-yl]-N-(2-hydroxy-ethyl)-N-methyl-spiro[1,2-dihydro-indole-3,1′-cyclopropane]-6-carboxylic acid amide], with less than 0.1 µM; and `CN(CCO)C(=O)c1ccc2c(c1)N(c1ncc(-c3cccnn3)cn1)CC21CC1` [Compound 262, N-(2-Hydorxy-ethyl)-N-methyl-1-(5-pyridazin-3-yl-pyrimidin-2-yl)-spiro[1,2-dihydro-indole-3,1′-cyclopropane]-6-carboxylic acid amide], with less than 0.1 µM; and `Nc1ccnc(-c2cnc(N3CC4(CC4)c4ccc(C(=O)N5CC6CC5CN6)cc43)nc2)c1` (stereo not shown) [Compound 263, [1-[5-(4-Amino-pyridin-2-yl)-pyrimidin-2-yl]-spiro[1,2-dihydro-indole-3,1′-cyclopropane]-6-yl]-(2,5-diazabicyclo[2.2.1]heptan-2-yl)-methanone dihydrochloride], with less than 0.1 µM.
For the compound `CN(CCO)C(=O)c1ccc2c(c1)N(c1ncc(-c3cccc(O)c3)cn1)CC21CC1` [Compound 264, N-(2-Hydroxy-ethyl)-1-[5-(3-hydroxyphenyl)-pyrimidin-2-yl]-N-methyl-spiro[1,2-dihydro-indole-3,1′-cyclopropane]-6-carboxylic acid amide], the IC50 is less than 0.1 µM.
Then `O=C1CN(C(=O)c2ccc3c(c2)N(c2ncc(-c4cc(O)ccn4)cn2)CC32CC2)CCN1` [Compound 265, 4-[1-[5-(4-Hydroxy-pyridin-2-yl)-pyrimidin-2-yl]-spiro[1,2-dihydro-indole-3,1′-cyclopropane]-6-carbonyl]-piperazin-2-one], with less than 0.1 µM.
Then `CCc1cccc(-c2cnc(N3CC4(CC4)c4ccc(C(=O)N(C)CCO)cc43)nc2)c1` [Compound 266, 1-[5-(3-Ethyl-phenyl)-pyrimidin-2-yl]-N-(2-hydroxy-ethyl)-N-methyl-spiro[1,2-dihydro-indole-3,1′-cyclopropane]-6-carboxylic acid amide], with less than 0.1 µM.
Then `CN(CCO)C(=O)c1ccc2c(c1)N(c1ncc(-c3cccc(C4CC4)c3)cn1)CC21CC1` [Compound 267, 1-[5-(3-Cyclopropyl-phenyl)-pyrimidin-2-yl]-N-(2-hydroxy-ethyl)-N-methyl-spiro[1,2-dihydro-indole-3,1′-cyclopropane]-6-carboxylic acid amide], with less than 0.1 µM; and `CCc1cccc(-c2cnc(N3CC4(CC4)c4ccc(C(=O)N(C)CCO)cc43)nc2)n1` [Compound 268, 1-[5-(6-Ethyl-pyridin-2-yl)-pyrimidin-2-yl]-N-(2-hydroxy-ethyl)-N-methyl-spiro[1,2-dihydro-indole-3,1′-cyclopropane]-6-carboxylic acid amide], with less than 0.1 µM.
In turn, `CN(CCO)C(=O)c1ccc2c(c1)N(c1ncc(-c3cccc(C4CC4)n3)cn1)CC21CC1` [Compound 269, 1-[5-(6-Cyclopropyl-pyridin-2-yl)-pyrimidin-2-yl]-N-(2-hydroxy-ethyl)-N-methyl-spiro[1,2-dihydro-indole-3,1′-cyclopropane]-6-carboxylic acid amide] registered an IC50 of less than 0.1 µM.
